Assay results taken from patent US3949075A, “Anti-microbial compounds of 2', 4' substituted anilides of substituted nitrosalicylic acid for quadruped animals” (Ferro Corporation, priority 1974, dated 1976).
In brackets after ≈: the same amount, converted by molar mass. Read-outs that look alike come from different tables or passages of the source.

Legend:
[1] = system: Haemonchus contortus; assay: Percent of Haemonchus destroyed or expelled in infected sheep (egg count after treatment); assay type: in vivo, Haemonchus contortus (in sheep); conditions: for inhibition in vivo at 2 mg/kg / inhibition in vivo at 5 mg/kg / inhibition in vivo at 15 mg/kg: Haemonchus contortus
Protocol: Two groups of sheep were used in the tests. One group was used as a non-medicated control, while the other group was treated with the compound under investigation. Helminth-free young lambs were infected with about 10,000 filariform larvae of Haemonchus contortus. In three weeks when the infection became apparent, egg counts were made to determine the density of the worm burden.
The egg count was carried out using the following modified Stoll method. Three grams of sheep feces were taken rectally from each animal and placed in a Stoll flask. To each flask, tap water was added to the top line. The fecal pellets were too hard to break down, the flasks were closed with rubber stoppers and kept in the refrigerator for several hours. The flasks were thoroughly shaken and a 1 ml. sample was drawn from the middle using a wide mouth pipette. This 1 ml. sample was transferred to an 8 ml. plastic tube, to which enough saturated sodium chloride solution was added to reach the rim. The tubes were then centrifuged for 10 minutes at 1500 r.p.m. Then sodium chloride solution was added with a medicine dropper forming a concave miniscus. A cover glass was carefully added and the tubes were kept in a refrigerator for ten to twenty minutes. During that period, the nematode ova flowed upward and adhered to the bottom of the cover glass slip. At the end of the 20-minute period, the cover slip was carefully detached from the miniscus and transferred to a microscopic slide. The ova were then counted under a microscope equipped with 10X ocular and 10X objective lens. Each ovum under the microscope represented 20 ova in the sample.
Animals with sufficiently high egg counts were taken out of the pool and housed in experimental pens. Since the salicylanilides of the present invention are water insoluble, the compounds were first ground using a mortar and pestle and then were placed in a carboxymethyl cellulose solution. The particles were further micronized ultrasonically. The compound was then administered to two or three animals by Oesophageal gavage. Control, untreated animals, received only the carboxymethyl cellulose solution in a similar manner. On the sixth and seventh day after treatment, fecal pellets were taken from the rectum of the control as well as the treated animals and egg counts were made.
(§1) The results of tests on sheep in a manner described, supra, using compounds of the present invention are given in Table 1, Examples 5 through 13. The numbers in the column headed "Haemonchus (15 mg/kg)" refer to the percent of parasites destroyed or expelled when the indicated compound was introduced into the rumen of sheep at a dosage of 15 milligrams per kilogram of body weight. The values under "Tolerance (mg/kg)" refer to the highest test dosage in the milligrams of anthelmintic per kilogram of body weight at which the sheep developed no toxic symptoms. "Tol." is an abbreviation for "tolerated". The symbols R1 and R2 refer to those of Formula I in these and other following examples.
(§2) The data of the tables were generated using procedures previously described. The compounds tested are disubstituted and, except for Example 50 which is dibromo, are dichloro. Where the position for the substituents is other than 2' and 4', it is indicated. Under the indicated microorganisms, the values given in this and the following tables, should be read as: percentage of microorganism killed/dose in milligrams per kilogram of body weight. Under "Tolerance", the term "Tol." means "tolerated", "Tox." means "toxic", and "Sym." means "symptoms of toxic reaction", all at the dosage value which follows. It will be appreciated that there is no sharp toxicity end point in determining toxicity to living sheep.

[2] = system: Fasciola hepatica; assay: Test for activity against liver flukes, Fasciola hepatica, in infected sheep; assay type: in vivo; conditions: Fasciola hepatica, read-out: Fasciola hepatica, percentage of microorganism killed
Protocol: (§3) Test for activity against liver flukes were conducted as follows:
(§4) Eggs of Fasciola hepatica were collected from the bile of donor sheep. The eggs were embryonated and snails were infected (the genus Lymnaea serves as intermediate host) to produce Metacercariae which are the infective forms for sheep. Each sheep was infected with 250 metacercariae intraruminally. When the infection became patent in ca. 80 days, egg counts were carried out to determine the degree of worm burden. The liver was processed to recover F. hepatica in the untreated and treated sheep.
as §2

[3] = Tolerance / toxicity in sheep; assay type: in vivo; design: key to Tolerance at 100 mg/kg / Tolerance at 50 mg/kg: "toxic" refers to death of sheep resulting from the use of the indicated compound at the indicated dosage; key to Tolerance: Tol.: tolerated; Tox.: toxic; Sym.: symptoms of toxic reaction; conditions: in vivo, Table 1, read-out: Tolerance, highest test dosage at which the sheep developed no toxic symptoms
Protocol: as §1
(§5) The importance of the 2',4' substitution on the anilide moiety of Formula I is illustrated by the case of the dichloro substitution as summarized in Table III. […] This has been mentioned briefly hereinabove. As used herein, "toxic" refers to death of sheep resulting from the use of the indicated compound at the indicated dosage.
as §2

[4] = system: Trichophyton mentagrophytes; assay: Inhibition of fungus on Sabouraud agar; assay type: cell-based; conditions: 120 hours at 25°C., read-out: inhibitory concentration
Protocol: (§6) The following procedure for antibacterial evaluation was used. Test compounds were dissolved in a suitable solvent (typically dimethyl sulfoxide or acetone) and incorporated in a nutrient agar at various concentrations. The plates were then streaked with cultures of the appropriate bacteria. The inoculum contained about 8 × 10^8 organisms per milliliter. After incubation for 48 hours at 37°C., the plates were examined for evidence of growth of the microorganisms. The minimum concentration necessary for complete inhibition of growth was noted.
For testing against the fungus Trichophyton the same procedure was used, except that the test medium was Sabouraud agar, and the plates were cultured for 120 hours at 25°C. before evaluation for evidence of growth. The inoculum added to the culture media contained about 5 × 10^6 spores in a water suspension containing 0.1% peptone.

[5] = system: liver flukes of the genus Fasciola; assay: Utility against liver flukes of the genus Fasciola in sheep (oral); assay type: in vivo
Protocol: as §3, §4
The compounds of this invention also have utility against liver flukes.

[6] = system: sheep; assay: Tolerance / toxicity in sheep; assay type: in vivo; design: key to Tolerance at 100 mg/kg / Tolerance at 50 mg/kg: "toxic" refers to death of sheep resulting from the use of the indicated compound at the indicated dosage; key to Tolerance: Tol.: tolerated; Tox.: toxic; Sym.: symptoms of toxic reaction
Protocol: as §1, §5, §2

[7] = system: Haemonchus and Fasciola hepatica; assay: Dual activity against Haemonchus and Fasciola in sheep and therapeutic ratio; assay type: in vivo; conditions: sheep, Table IX, listed as methyl 2'
[8] = system: Escherichia coli; assay: Agar plate minimum inhibitory concentration; assay type: cell-based; conditions: nutrient agar, 48 hours at 37°C., complete inhibition
Protocol: as §6

[9] = system: Haemophilus gallinarum; assay: Agar plate minimum inhibitory concentration; assay type: cell-based; conditions: Avibacterium paragallinarum, nutrient agar, 48 hours at 37°C., complete inhibition
Protocol: as §6

[10] = system: Salmonella choleresuis; assay: Agar plate minimum inhibitory concentration; assay type: cell-based; conditions: 48 h, read-out: Minimum Inhibitory Concentration
Protocol: as §6

[11] = system: Salmonella gallinarum; assay: Agar plate minimum inhibitory concentration; assay type: cell-based; conditions: Salmonella enterica, nutrient agar, 48 hours at 37°C., complete inhibition
Protocol: as §6

[12] = system: Staphylococcus aureaus; assay: Agar plate minimum inhibitory concentration; assay type: cell-based; conditions: 48 h, read-out: Minimum Inhibitory Concentration
Protocol: as §6

[13] = system: Streptococcus foecalis; assay: Agar plate minimum inhibitory concentration; assay type: cell-based; conditions: 48 h, read-out: Minimum Inhibitory Concentration
Protocol: as §6

[14] = system: Alternaria solani; assay: Reducing infestation on tomatoes, early blight; assay type: in vivo, Alternaria solani (on tomatoes)
[15] = system: Phytophthora infestans; assay type: in vivo, Phytophthora infestans (on tomatoes)
[16] = sheep, Tables VIII-XI, read-out: Haemonchus, percentage of microorganism killed
[17] = sheep, 15 mg/kg, Table V, read-out: Effectiveness at 15 mg/kg against Haemonchus
[18] = sheep, 15 mg/kg, Tables VIII-XI, read-out: Haemonchus, percentage of microorganism killed
[19] = sheep, into rumen, 15 mg/kg, Table 1

Cc1c([N+](=O)[O-])cc(C(C)(C)C)c(O)c1C(=O)Nc1ccc(Cl)cc1 [Example 7, 3-tert. butyl-4'-chloro-6-methyl-5-nitrosalicylanilide]
inhibition in vivo at 2 mg/kg [1, 16]: 0%
inhibition in vivo at 5 mg/kg ([1]; sheep, 5 mg/kg, Tables VIII-XI, read-out: Haemonchus, percentage of microorganism killed): 65%
inhibition in vivo at 15 mg/kg [1, 17]: 81%
inhibition in vivo at 15 mg/kg [1, 18]: 81%
Haemonchus (2 mg/kg), percent of parasites destroyed or expelled ([1]; sheep, into rumen, Table 1): 0%
Haemonchus (5 mg/kg), percent of parasites destroyed or expelled ([1]; sheep, into rumen, 5 mg/kg, Table 1): 65%
Haemonchus (15 mg/kg), percent of parasites destroyed or expelled [1, 19]: 81%
inhibition in vivo at 2 mg/kg ([2]; sheep, 2 mg/kg, Tables VIII-XI): 0%
inhibition in vivo at 5 mg/kg ([2]; sheep, Tables VIII-XI): 50%
inhibition in vivo at 15 mg/kg ([2]; sheep, Tables VIII-XI): 100%
NOAEL [3]: 15 to 50 mg/kg
MIC [4]: 1 µg/mL (≈ 2.76 µM)
effect against liver flukes ([5]; 15 mg/kg): efficacious

Cc1cc(Cl)ccc1NC(=O)c1c(C)c([N+](=O)[O-])cc(C(C)(C)C)c1O [Example 6, 3-tert. butyl-4'-chloro-2', 6-dimethyl-5-nitrosalicylanilide]
inhibition in vivo at 15 mg/kg ([1]; iv, sheep, 15 mg/kg, Tables III and IV, read-out: Effectiveness (%) at 15 mg/kg): 100%
inhibition in vivo at 5 mg/kg ([1]; read-out: Haemonchus, percentage of microorganism killed, sheep, 5 mg/kg, Tables VIII-XI): 99%
inhibition in vivo at 2 mg/kg [1, 16]: 67%
inhibition in vivo at 15 mg/kg [1, 18]: 100%
activity against Haemonchus relative to other isomers, in words ([1]; sheep): greater activity against Haemonchus
Effectiveness (%) at 5 mg/kg ([1]; sheep, 5 mg/kg, Tables III and IV): 95%
Effectiveness at 15 mg/kg against Haemonchus ([1]; sheep, 15 mg/kg, Table VI): 100%
effective in killing or expelling Haemonchus ([1]; sheep, dose not given): 100%
Haemonchus (2 mg/kg), percent of parasites destroyed or expelled ([1]; sheep, into rumen, Table 1): 67%
Haemonchus (15 mg/kg), percent of parasites destroyed or expelled [1, 19]: 100%
inhibition in vivo at 2 mg/kg [2]: 0%
inhibition in vivo at 5 mg/kg ([2]; sheep, Tables VIII-XI): 100%
NOAEL [3]: 50 to 100 mg/kg
Tolerance ([6]; 25 mg./kg., Tables IX, X): Tol.
Tolerance ([6]; 50 mg./kg., Tables VIII-X): Sym.
Tolerance at 50 mg/kg ([6]; 50 mg/kg, Tables III and IV): non toxic
Tolerance ([6]; 100 mg./kg., Tables VIII, IX): Tox.
Tolerance at 100 mg/kg ([6]; 100 mg/kg, Tables III and IV): toxic
effect against (mature) liver flukes ([5]; oral, 5 mg/kg, within three days): The same effects against mature flukes
dual activity relative to other isomers, in words ([7]; chloro 4' compound): much greater dual activity
dual activity relative to other isomers, in words ([7]; chloro 4' isomer): very active at doses well below those at which other isomers are inactive

Cc1c([N+](=O)[O-])cc(C(C)(C)C)c(O)c1C(=O)Nc1ccc(Br)cc1 [Example 8, 4'-bromo-3-tert. butyl-6-methyl-5-nitrosalicylanilide]
inhibition in vivo at 15 mg/kg [1, 17]: 61%
inhibition in vivo at 15 mg/kg [1, 18]: 61%
Haemonchus (15 mg/kg), percent of parasites destroyed or expelled [1, 19]: 61%
inhibition in vivo at 5 mg/kg ([2]; sheep, Tables VIII-XI): 0%
inhibition in vivo at 15 mg/kg ([2]; sheep, Tables VIII-XI): 100%
MIC [8]: 64 µg/mL (≈ 157 µM)
MIC [9]: 8 µg/mL (≈ 19.6 µM)
MIC [10]: 64 µg/mL (≈ 157 µM)
MIC [11]: 64 µg/mL (≈ 157 µM)
MIC [12]: 1 µg/mL (≈ 2.46 µM)
MIC [13]: 64 µg/mL (≈ 157 µM)
reducing infestation on tomatoes, early blight [14]: effective in reducing infestation
reducing infestation on tomatoes, late blight [15]: effective in reducing infestation
